Experimental data from US20260176289A1, “SMALL MOLECULE INHIBITORS OF KRAS PROTEINS” (Merck Sharp & Dohme LLC, priority 2022, published 2026).
Read-outs that look alike come from different tables or passages of the source.

Key:
SW620 cells = test: Cellular phospho-ERK assay, SW620 cells (homozygous KRAS-G12V); assay type: cell-based; details: Homo sapiens, read-out: SW620 pERK IC50
Method in brief: (§1)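 10k–15k cells/well, o/n attach; cpd 2 h, 37 °C, 10-pt 1:3 from 30 μM final; lyse with protease/phosphatase inhibitors 30 min RT; multiplex SureFire p-ERK + total ERK; IC50 via 4PL on ratio.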

KRAS-G12D = KRAS-G12D (Homo sapiens, UniProt P01116, G12D); test: SOS-catalyzed nucleotide exchange assay (Procedure A, TR-FRET), KRAS-G12D; assay type: biochemical; details: nucleotide exchange, read-out: KRAS G12D GNE IC50
Method in brief: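 Signal ratio (520/495 nm, excitation 340 nm) reports Bodipy-GDP retention on biotinylated RAS after SOS-catalyzed exchange with 3 mM GTP. SOS was 40 nM, except 160 nM for G12V. Room-temperature exchange lasted 60 min (90 min for G12V), following a 60 min compound preincubation.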

KRAS-WT = KRAS-WT (Homo sapiens, UniProt P01116); test: SOS-catalyzed nucleotide exchange assay (Procedure A, TR-FRET), KRAS-WT; assay type: biochemical; details: nucleotide exchange, read-out: KRAS WT GNE IC50
Method in brief: (§2)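 Biotinylated RAS (KRAS-G12C carries C51S/C80L/C118S; others WT background) preloaded with Bodipy-GDP plus Tb-streptavidin, preincubated with compound 60 min at RT, then human SOS and 3 mM GTP added. Final RAS/SOS: G12C 3 nM/40 nM, 60 min; WT 1 nM/40 nM, 60 min; G12V 1.25 nM/160 nM, 90 min; NRAS 1.25 nM/40 nM, 60 min. TR-FRET 520/495 ratio normalized to DMSO and saturating inhibitor; 10-point curves fit four-parameter logistic.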

AsPC-1 cells = test: Cellular phospho-ERK assay, AsPC-1 cells (homozygous KRAS-G12D); assay type: cell-based; details: Homo sapiens, ASPC1, 2 h, read-out: AsPC1 pERK IC50
Method in brief: as §1

KRAS-G12V = KRAS-G12V (Homo sapiens, UniProt P01116, G12V); test: SOS-catalyzed nucleotide exchange assay (Procedure A, TR-FRET), KRAS-G12V; assay type: biochemical; details: nucleotide exchange, read-out: KRAS G12V GNE IC50
Method in brief: as §2

MKN-1 cells = test: Cellular phospho-ERK assay, MKN-1 cells (amplified wild-type KRAS); assay type: cell-based; details: Homo sapiens, read-out: MKN1 pERK IC50
Method in brief: as §1

[1] = amplified wild-type KRAS, 2 hours
[2] = SW-620, 2 hours compound incubation

Chain of KRAS-G12V (P01116 with tags, fused parts or gaps isoform P01116-2 G12V): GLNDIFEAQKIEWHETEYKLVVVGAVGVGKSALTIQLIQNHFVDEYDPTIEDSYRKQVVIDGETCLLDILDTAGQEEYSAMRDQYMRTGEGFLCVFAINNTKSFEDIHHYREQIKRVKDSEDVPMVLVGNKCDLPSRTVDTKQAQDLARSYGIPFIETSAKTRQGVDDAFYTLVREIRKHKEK
Chain of KRAS-G12D (P01116 with tags, fused parts or gaps isoform P01116-2 G12D): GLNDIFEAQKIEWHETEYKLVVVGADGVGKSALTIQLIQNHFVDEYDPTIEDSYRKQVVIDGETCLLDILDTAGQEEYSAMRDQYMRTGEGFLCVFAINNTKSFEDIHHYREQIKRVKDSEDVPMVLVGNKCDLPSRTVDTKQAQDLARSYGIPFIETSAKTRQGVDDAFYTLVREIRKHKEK
Chain of KRAS-WT (P01116 with tags, fused parts or gaps isoform P01116-2): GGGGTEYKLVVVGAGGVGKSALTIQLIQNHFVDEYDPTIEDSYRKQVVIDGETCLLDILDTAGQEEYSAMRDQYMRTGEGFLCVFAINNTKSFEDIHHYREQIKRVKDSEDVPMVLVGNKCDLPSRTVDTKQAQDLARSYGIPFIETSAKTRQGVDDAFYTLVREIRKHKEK

Row | SMILES | IC50 (SW620 cells; SW-620, KRAS-G12V, 2 hours) [nM] | IC50 (KRAS-G12D) [nM] | IC50 (KRAS-WT) [nM] | IC50 (AsPC-1 cells; KRAS-G12D, 2 hours) [nM] | IC50 (KRAS-G12V) [nM] | IC50 (MKN-1 cells; [1]) [nM] | IC50 (SW620 cells; [2]) [nM] | IC50 (AsPC-1 cells; 2 hours compound incubation) [nM] | IC50 (MKN-1 cells; 2 hours compound incubation) [nM]
1 | C[C@@]1(O)COCCN(c2nc(OC[C@@]34CCCN3C[C@H](F)C4)nc3sc4c(-c5c(-c6ccoc6)c(Cl)cc6[nH]ncc56)nccc4c23)C1 [Ex-71, (6S)-4-(8-(6-chloro-5-(furan-3-yl)-1H-indazol-4-yl)-2-(((2R,7aS)-2-fluorotetrahydro-1H-pyrrolizin-7a(5H)-yl)methoxy)pyrido[4′,3′:4,5]thi-eno[2,3-d]pyrimidin-4-yl)-6-methyl-1,4-oxazepan-6-ol] | 150 | 4 | 17.6 | 66.4 | 11.5 | 50.2 |  |  | 
2 | Cc1c2nc(OC[C@@]34CCCN3C[C@H](F)C4)nc(N3CCOC[C@@](C)(O)C3)c2n2ccnc(-c3c(C4CC4)c(Cl)cc4[nH]ncc34)c12 (single isomer, unassigned) [Ex-302] | 48.9 | 8.99 | 18.6 | 135 | 17 | 49.5 |  |  | 
3 | C#C[C@@H]1CCCc2cc3[nH]ncc3c(-c3nccc4c3sc3nc(OC[C@@]56CCCN5C[C@H](F)C6)nc(N5CCOC[C@@](C)(O)C5)c34)c21 [Ex-175] |  | 82.1 | 186 |  | 66.3 |  | 278 | 856 | 324
4 | C[C@@]1(O)COCCN(c2nc(OC[C@@]34CCCN3CC(=C(F)F)C4)nc3sc4c(-c5c(C6(F)CC6)c(Cl)cc6[nH]ncc56)nccc4c23)C1 [Ex-272, (6S)-4-(8-(6-chloro-5-(1-fluorocyclopropyl)-1H-indazol-4-yl)-2-(((S)-2-(difluoromethylene)tetra-hydro-1H-pyrrolizin-7a(5H)-yl)methoxy)pyri-do[4′,3′:4,5]thi-eno[2,3-d]pyrimidin-4-yl)-6-methyl-1,4-oxazepan-6-ol] | 29.4 | 3.18 | 29.3 | 62.4 | 19.4 | 50.5 |  |  | 
5 | C[C@@]1(O)COCCN(c2nc(OC[C@@]34CCCN3C[C@H](F)C4)nc3sc4c(-c5c6c(cc7[nH]ncc57)CC=C6C5CC5)nccc4c23)C1 [Ex-105, (6S)-4-(8-(5-cyclopropyl-1,7-dihydrocyclopenta[f]inda-zol-4-yl)-2-(((2R,7aS)-2-fluorotetrahydro-1H-pyrrolizin-7a(5H)-yl)methoxy)pyrido[4′,3′:4,5]thieno[2,3-d]pyrimidin-4-yl)-6-methyl-1,4-oxazepan-6-ol] | 80.5 | 26.7 | 72.2 | 158 | 37.2 | 136 |  |  | 
6 | C/C=C1\CCCc2cc3[nH]ncc3c(-c3nccc4c3sc3nc(OC[C@@]56CCCN5C[C@H](F)C6)nc(N5CCOC[C@@](C)(O)C5)c34)c21 [Ex-174, (6S)-4-(8-((E)-5-ethyl-idene-5,6,7,8-tetrahydro-1H-benzo[f]indazol-4-yl)-2-(((2R,7aS)-2-fluoro-tetrahydro-1H-pyrrolizin-7a(5H)-yl)methoxy)pyr-ido[4′,3′:4,5]thieno[2,3-d]pyrimidin-4-yl)-6-meth-yl-1,4-oxazepan-6-ol] |  | 23.6 | 63.8 |  | 26.2 |  | 91.1 | 254 | 73.6
7 | C[C@@]1(O)COCCN(c2nc(OC[C@@]34CCCN3C[C@H](F)C4)nc3sc4c(-c5c6c(cc7[nH]ncc57)CC5CC65)nccc4c23)C1 (stereo partly drawn) [Ex-90, (6S)-4-(2-(((2R,7aS)-2-fluorotetrahydro-1H-pyrrolizin-7a(5H)-yl)methoxy)-8-(4b,5,5a,6-tetrahydro-1H-cyclopropa[4,5]cyclopen-ta[1,2-f]indazol-4-yl)pyrido[4′,3′:4,5]thieno [2,3-d]pyrimidin-4-yl)-6-methyl-1,4-oxazepan-6-ol] | 193 | 48.8 | 152 | 311 | 85 | 174 |  |  | 
8 | CCc1csc2cc3[nH]ncc3c(-c3nccc4c3sc3nc(OC[C@@]56CCCN5C[C@H](F)C6)nc(N5CCOC[C@@](C)(O)C5)c34)c12 [Ex-168, (6S)-4-(8-(5-ethyl-1H-thieno[3,2-f]indazol-4-yl)-2-(((2R,7aS)-2-fluorotetrahydro-1H-pyrrolizin-7a(5H)-yl)methoxy)pyrido [4′,3′:4,5]thieno[2,3-d]pyrimidin-4-yl)-6-methyl-1,4-oxazepan-6-ol] |  | 3.17 | 7.25 |  | 5.49 |  | 13 | 31.4 | 25.8
9 | Cc1cc2[nH]ncc2c(-c2nccc3c2sc2nc(OC[C@@]45CCCN4C[C@H](F)C5)nc(N4CCOCC5(CC(C)O5)C4)c23)c1C(F)(F)F (stereo partly drawn) [Ex-199, 9-(2-(((2R,7aS)-2-fluoro-tetrahydro-1H-pyrrolizin-7a(5/7)-yl)methoxy)-8-(6-methyl-5-(trifluorometh-yl)-1H-indazol-4-yl)pyrido [4′,3′:4,5]thieno[2,3-d]pyr-imidin-4-yl)-2-methyl-1,6-dioxa-9-azaspiro[3.6] decane] |  | 86.8 | 287 |  | 92.6 |  | 190 | 374 | 313
10 | C[C@@]1(O)COCCN(c2nc(OC[C@]3(CN4CC5(CCOCC5)C4)CC3(F)F)nc3sc4c(-c5c(C6(F)CC6)c(Cl)cc6[nH]ncc56)nccc4c23)C1 [Ex-248, (6S)-4-(2-(((R)-1-((7-oxa-2-azaspiro[3.5]nonan-2-yl)methyl)-2,2-difluorocyclopropyl)methoxy)-8-(6-chloro-5-(1-fluorocyclopropyl)-1H-indazol-4-yl)pyrido[4′,3′:4,5]thieno[2,3-d]pyrimidin-4-y1)-6-methyl-1,4-oxazepan-6-ol] |  | 3.09 | 12.5 |  | 15.5 |  | 42.8 | 45.7 | 36.3
11 | C[C@@]1(O)COCCN(c2nc(OC[C@]3(CN4CCC4)CC3(F)F)nc3sc4c(-c5c(C6(F)CC6)c(Cl)cc6[nH]ncc56)nccc4c23)C1 [Ex-239, (6S)-4-(2-(((R)-1-(azetidin-1-ylmethyl)-2,2-difluorocyclopropyl)methoxy)-8-(6-chloro-5-(1-fluorocyclopropyl)-1H-indazol-4-yl)pyrido[4′,3:′4,5]thieno[2,3-d]pyrimidin-4-yl)-6-methyl-1,4-oxazepan-6-ol] |  | 1.85 | 8.2 |  | 11.4 |  | 29.4 | 54.5 | 33.7
12 | CO[C@H]1CN2CCC[C@@]2(COc2nc(N3CCOC[C@@](C)(O)C3)c3c(n2)sc2c(-c4c(C5CC5)c(Cl)cc5[nH]ncc45)nccc23)C1 [Ex-229, (6S)-4-(8-(6-chloro-5-cyclopropyl-1H-indazol-4-yl)-2-(((2R,7aS)-2-meth-oxytetrahydro-1H-pyrrolizin-7a(5H)-yl)methoxy)pyrido [4′,3′:4,5]thieno[2,3-d]pyrimidin-4-yl)-6-methyl-1,4-oxaze-pan-6-ol] |  | 6.54 | 22.5 |  | 19.1 |  | 38.2 | 109 | 51.9
13 | CCC1(F)c2c(cc3[nH]ncc3c2-c2nccc3c2sc2nc(OC[C@@]45CCCN4C[C@H](F)C5)nc(N4CCOC[C@@](C)(O)C4)c23)CC1(F)F (stereo partly drawn) [Ex-98, (6S)-4-(8-(5-ethy1-5,6,6-trifluoro-1,5,6,7-tetrahydrocyclopenta[f]in-dazol-4-yl)-2-(((2R,7aS)-2-fluorotetrahydro-1H-pyrrolizin-7a(5H)-yl)methoxy)pyrido[4′,3′:4,5]thi-eno[2,3-d]pyrimidin-4-yl)-6-methyl-1,4-oxazepan-6-ol] | 68.8 | 18.9 | 61.3 | 175 | 20.8 | 72.8 |  |  | 
14 | C[C@@]1(O)COCCN(c2nc(OC[C@@]34C[C@H](F)CN3CC3(CC3)C4)nc3sc4c(-c5c(C6CC6)c(Cl)cc6[nH]ncc56)nccc4c23)C1 [Ex-219, (6S)-4-(8-(6-chloro-5-cyclopropyl-1H-indazol-fluoro-dihydro-1H,3′H-spiro[cyclopropane-1,2′-yl)methoxy)-pyrido[4′,3′:4,5]thieno[2,3-d]pyr-imidin-4-yl)-6-methyl-1,4-oxaze-pan-6-ol] |  | 82.7 | 255 |  | 196 |  | 230 | 305 | 318
